Assays:
Ephrin type-B receptor 3 = Ephrin type-B receptor 3 (Homo sapiens, UniProt P54753); assay: Inhibition of Nano Luc-fused full length C-terminal EPHB3 (unknown origin) expressed in HEK293T cells using NanoGlo as substrate incubated for 2 hrs in presence of tracer by NanoBRET assay; format: cell-based
[1] = biological target: AarF domain-containing protein kinase 1 (Homo sapiens) (UniProt Q86TW2); also: assay method not described here
[2] = biological target: Actin-related protein 2/3 complex subunit 5 (Homo sapiens) (UniProt O15511); also: assay method not described here
Cyclin-T1 (Homo sapiens) = Cyclin-T1 (Homo sapiens) (UniProt O60563); also: assay method not described here
[3] = biological target: Cytoskeleton-associated protein 4 (Homo sapiens) (UniProt Q07065); also: assay method not described here
[4] = biological target: Exportin-2 (Homo sapiens) (UniProt P55060); also: assay method not described here
[5] = biological target: Casein kinase II subunit beta (Homo sapiens) (UniProt P67870); also: assay method not described here
[6] = biological target: Probable ATP-dependent RNA helicase DDX17 (Homo sapiens) (UniProt Q92841); also: assay method not described here
[7] = biological target: rRNA 2'-O-methyltransferase fibrillarin (Homo sapiens) (UniProt P22087); also: assay method not described here
[8] = biological target: Ferrochelatase, mitochondrial (Homo sapiens) (UniProt P22830); also: assay method not described here
[9] = biological target: Glutathione reductase, mitochondrial (Homo sapiens) (UniProt P00390); also: assay method not described here
[10] = biological target: Tyrosine-protein kinase HCK (Homo sapiens) (UniProt P08631); also: assay method not described here
Homo sapiens [11] = organism: Homo sapiens; also: assay method not described here
[12] = biological target: Heterogeneous nuclear ribonucleoprotein A3 (Homo sapiens) (UniProt P51991); also: assay method not described here
[13] = biological target: Junction plakoglobin (Homo sapiens) (UniProt P14923); also: assay method not described here
[14] = biological target: WASH complex subunit 5 (Homo sapiens) (UniProt Q12768); also: assay method not described here
[15] = biological target: Serine/threonine-protein kinase LATS1 (Homo sapiens) (UniProt O95835); also: assay method not described here
[16] = biological target: LIM domain kinase 1 (Homo sapiens) (UniProt P53667); also: assay method not described here
[17] = biological target: Protein MAL2 (Homo sapiens) (UniProt Q969L2); also: assay method not described here
[18] = biological target: Mitogen-activated protein kinase kinase kinase 11 (Homo sapiens) (UniProt Q16584); also: assay method not described here
[19] = biological target: MAP/microtubule affinity-regulating kinase 3 (Homo sapiens) (UniProt P27448); also: assay method not described here
[20] = biological target: Membrane-bound acylglycerophosphatidylinositol O-acyltransferase MBOAT7 (Homo sapiens) (UniProt Q96N66); also: assay method not described here
[21] = biological target: DNA replication licensing factor MCM6 (Homo sapiens) (UniProt Q14566); also: assay method not described here
[22] = biological target: MMS19 nucleotide excision repair protein homolog (Homo sapiens) (UniProt Q96T76); also: assay method not described here
[23] = biological target: Serine/threonine-protein kinase Nek3 (Homo sapiens) (UniProt P51956); also: assay method not described here
[24] = biological target: Phosphatidylinositol 5-phosphate 4-kinase type-2 gamma (Homo sapiens) (UniProt Q8TBX8); also: assay method not described here
[25] = biological target: Peroxiredoxin-4 (Homo sapiens) (UniProt Q13162); also: assay method not described here
[26] = biological target: Proteasome activator complex subunit 1 (Homo sapiens) (UniProt Q06323); also: assay method not described here
Homo sapiens [27] = organism: Homo sapiens; remark: listed apart in the source; also: assay method not described here
[28] = biological target: Large ribosomal subunit protein uL22 (Homo sapiens) (UniProt P18621); also: assay method not described here
[29] = biological target: Secretory carrier-associated membrane protein 3 (Homo sapiens) (UniProt O14828); also: assay method not described here
[30] = biological target: Mitochondrial 2-oxoglutarate/malate carrier protein (Homo sapiens) (UniProt Q02978); also: assay method not described here
[31] = biological target: High affinity cationic amino acid transporter 1 (Homo sapiens) (UniProt P30825); also: assay method not described here
[32] = biological target: Translocon-associated protein subunit alpha (Homo sapiens) (UniProt P43307); also: assay method not described here
[33] = biological target: Stress-induced-phosphoprotein 1 (Homo sapiens) (UniProt P31948); also: assay method not described here
[34] = biological target: Serine/threonine-protein kinase STK11 (Homo sapiens) (UniProt Q15831); also: assay method not described here
[35] = biological target: TANK-binding kinase 1-binding protein 1 (Homo sapiens) (UniProt A7MCY6); also: assay method not described here
Elongin-C (Homo sapiens) = Elongin-C (Homo sapiens) (UniProt Q15369); also: assay method not described here
[36] = biological target: Nucleolysin TIAR (Homo sapiens) (UniProt Q01085); also: assay method not described here
[37] = biological target: Transmembrane 9 superfamily member 3 (Homo sapiens) (UniProt Q9HD45); also: assay method not described here
[38] = biological target: Transmembrane 9 superfamily member 4 (Homo sapiens) (UniProt Q92544); also: assay method not described here
[39] = biological target: Tripeptidyl-peptidase 1 (Homo sapiens) (UniProt O14773); also: assay method not described here
[40] = biological target: Transcription intermediary factor 1-beta (Homo sapiens) (UniProt Q13263); also: assay method not described here
[41] = biological target: Tubulin beta-6 chain (Homo sapiens) (UniProt Q9BUF5); also: assay method not described here
[42] = biological target: Protein unc-119 homolog A (Homo sapiens) (UniProt Q13432); also: assay method not described here
[43] = biological target: Non-selective voltage-gated ion channel VDAC1 (Homo sapiens) (UniProt P21796); also: assay method not described here

TANK-binding kinase 1-binding protein 1 (Homo sapiens), sequence (A7MCY6 whole entry): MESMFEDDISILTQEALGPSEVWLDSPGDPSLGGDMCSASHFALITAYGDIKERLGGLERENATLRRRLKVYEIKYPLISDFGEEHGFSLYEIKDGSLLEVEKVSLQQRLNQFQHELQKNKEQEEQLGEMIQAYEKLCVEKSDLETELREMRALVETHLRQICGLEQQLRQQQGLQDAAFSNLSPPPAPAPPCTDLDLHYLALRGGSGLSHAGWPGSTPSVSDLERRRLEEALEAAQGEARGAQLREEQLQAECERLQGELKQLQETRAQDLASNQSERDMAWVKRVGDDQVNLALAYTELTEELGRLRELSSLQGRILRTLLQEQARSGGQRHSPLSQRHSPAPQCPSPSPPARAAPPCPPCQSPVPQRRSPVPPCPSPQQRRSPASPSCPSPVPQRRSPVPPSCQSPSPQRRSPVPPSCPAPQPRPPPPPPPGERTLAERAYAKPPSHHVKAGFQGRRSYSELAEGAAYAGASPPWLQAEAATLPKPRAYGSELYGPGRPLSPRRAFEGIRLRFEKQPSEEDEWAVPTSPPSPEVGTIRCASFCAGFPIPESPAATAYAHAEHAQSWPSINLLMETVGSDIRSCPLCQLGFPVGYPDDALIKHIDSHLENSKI
Elongin-C (Homo sapiens), sequence (Q15369 whole entry, looked up): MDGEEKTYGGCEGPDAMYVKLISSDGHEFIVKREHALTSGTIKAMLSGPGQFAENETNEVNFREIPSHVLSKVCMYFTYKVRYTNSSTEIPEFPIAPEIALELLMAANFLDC
rRNA 2'-O-methyltransferase fibrillarin (Homo sapiens), sequence (P22087 whole entry): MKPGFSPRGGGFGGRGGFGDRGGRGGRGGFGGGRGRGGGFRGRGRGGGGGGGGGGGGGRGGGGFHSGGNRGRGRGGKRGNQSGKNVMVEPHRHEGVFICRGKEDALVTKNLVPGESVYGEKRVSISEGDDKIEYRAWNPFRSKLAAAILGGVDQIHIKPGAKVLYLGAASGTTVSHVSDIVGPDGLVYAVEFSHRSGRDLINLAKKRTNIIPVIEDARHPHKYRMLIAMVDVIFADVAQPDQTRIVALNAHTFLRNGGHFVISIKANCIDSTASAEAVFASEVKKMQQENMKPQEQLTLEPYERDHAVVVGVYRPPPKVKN
Probable ATP-dependent RNA helicase DDX17 (Homo sapiens), sequence (Q92841 whole entry): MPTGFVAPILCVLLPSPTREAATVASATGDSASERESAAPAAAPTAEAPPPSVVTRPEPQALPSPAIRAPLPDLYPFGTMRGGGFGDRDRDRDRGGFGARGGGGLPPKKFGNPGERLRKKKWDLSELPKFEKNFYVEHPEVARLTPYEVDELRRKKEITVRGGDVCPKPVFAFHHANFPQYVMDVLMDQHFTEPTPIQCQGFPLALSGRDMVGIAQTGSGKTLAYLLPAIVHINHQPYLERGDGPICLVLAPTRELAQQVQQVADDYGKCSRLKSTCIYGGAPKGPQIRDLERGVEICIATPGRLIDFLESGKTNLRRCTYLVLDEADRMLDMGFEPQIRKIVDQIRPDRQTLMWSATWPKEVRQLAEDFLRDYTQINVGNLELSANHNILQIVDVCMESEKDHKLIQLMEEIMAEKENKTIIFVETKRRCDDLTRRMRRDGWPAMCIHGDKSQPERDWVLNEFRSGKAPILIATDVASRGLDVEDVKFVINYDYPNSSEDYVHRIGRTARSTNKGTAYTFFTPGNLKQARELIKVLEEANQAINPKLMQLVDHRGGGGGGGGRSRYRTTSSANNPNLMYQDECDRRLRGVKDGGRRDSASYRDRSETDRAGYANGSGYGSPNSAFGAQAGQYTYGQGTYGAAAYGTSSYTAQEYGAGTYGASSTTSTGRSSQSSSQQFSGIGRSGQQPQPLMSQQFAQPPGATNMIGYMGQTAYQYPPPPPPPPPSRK
Transcription intermediary factor 1-beta (Homo sapiens), sequence (Q13263 whole entry): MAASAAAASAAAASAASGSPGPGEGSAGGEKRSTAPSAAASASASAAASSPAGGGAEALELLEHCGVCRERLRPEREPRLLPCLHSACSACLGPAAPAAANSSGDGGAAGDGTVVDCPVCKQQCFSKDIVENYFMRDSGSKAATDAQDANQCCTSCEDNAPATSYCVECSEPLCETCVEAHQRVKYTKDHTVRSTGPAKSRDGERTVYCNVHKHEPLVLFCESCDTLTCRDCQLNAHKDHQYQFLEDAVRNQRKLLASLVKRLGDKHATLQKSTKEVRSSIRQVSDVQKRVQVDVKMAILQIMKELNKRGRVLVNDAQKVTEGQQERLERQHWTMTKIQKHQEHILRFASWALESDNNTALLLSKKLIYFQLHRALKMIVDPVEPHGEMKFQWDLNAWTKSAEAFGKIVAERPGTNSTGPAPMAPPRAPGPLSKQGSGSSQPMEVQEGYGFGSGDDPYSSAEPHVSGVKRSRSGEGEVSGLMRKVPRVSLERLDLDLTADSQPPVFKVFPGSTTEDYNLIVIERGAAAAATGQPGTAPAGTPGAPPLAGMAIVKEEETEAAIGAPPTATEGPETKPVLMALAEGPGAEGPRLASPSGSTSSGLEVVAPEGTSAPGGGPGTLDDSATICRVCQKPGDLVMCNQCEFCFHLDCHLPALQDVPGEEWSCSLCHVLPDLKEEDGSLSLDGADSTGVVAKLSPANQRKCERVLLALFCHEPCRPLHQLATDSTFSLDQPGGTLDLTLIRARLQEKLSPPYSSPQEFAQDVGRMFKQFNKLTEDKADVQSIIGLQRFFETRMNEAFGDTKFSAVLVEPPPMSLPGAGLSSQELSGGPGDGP
Exportin-2 (Homo sapiens), sequence (P55060 whole entry): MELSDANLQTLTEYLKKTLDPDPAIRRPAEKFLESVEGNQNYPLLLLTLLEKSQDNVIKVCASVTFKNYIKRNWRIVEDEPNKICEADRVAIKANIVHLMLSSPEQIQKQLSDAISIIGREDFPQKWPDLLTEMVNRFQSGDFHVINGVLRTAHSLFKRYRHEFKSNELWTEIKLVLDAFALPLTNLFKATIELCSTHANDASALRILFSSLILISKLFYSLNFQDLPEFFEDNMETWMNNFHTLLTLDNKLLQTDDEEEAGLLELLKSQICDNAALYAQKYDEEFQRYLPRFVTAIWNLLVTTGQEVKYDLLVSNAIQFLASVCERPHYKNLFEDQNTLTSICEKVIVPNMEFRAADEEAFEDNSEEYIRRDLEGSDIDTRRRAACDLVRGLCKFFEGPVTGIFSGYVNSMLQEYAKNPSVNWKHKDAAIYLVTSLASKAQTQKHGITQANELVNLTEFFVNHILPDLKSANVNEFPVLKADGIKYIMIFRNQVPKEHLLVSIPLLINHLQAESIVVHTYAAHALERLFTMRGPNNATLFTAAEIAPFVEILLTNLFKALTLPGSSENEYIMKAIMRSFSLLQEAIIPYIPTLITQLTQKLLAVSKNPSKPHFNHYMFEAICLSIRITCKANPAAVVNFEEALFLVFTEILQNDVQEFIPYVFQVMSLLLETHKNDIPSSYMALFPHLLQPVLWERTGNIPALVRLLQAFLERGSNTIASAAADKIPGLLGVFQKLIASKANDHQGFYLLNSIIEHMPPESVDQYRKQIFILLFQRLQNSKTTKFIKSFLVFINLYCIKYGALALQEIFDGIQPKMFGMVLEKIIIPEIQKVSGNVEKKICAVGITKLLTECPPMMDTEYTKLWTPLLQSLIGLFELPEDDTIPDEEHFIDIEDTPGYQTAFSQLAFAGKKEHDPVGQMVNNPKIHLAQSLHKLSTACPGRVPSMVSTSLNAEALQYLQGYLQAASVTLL
Transmembrane 9 superfamily member 4 (Homo sapiens), sequence (Q92544 whole entry): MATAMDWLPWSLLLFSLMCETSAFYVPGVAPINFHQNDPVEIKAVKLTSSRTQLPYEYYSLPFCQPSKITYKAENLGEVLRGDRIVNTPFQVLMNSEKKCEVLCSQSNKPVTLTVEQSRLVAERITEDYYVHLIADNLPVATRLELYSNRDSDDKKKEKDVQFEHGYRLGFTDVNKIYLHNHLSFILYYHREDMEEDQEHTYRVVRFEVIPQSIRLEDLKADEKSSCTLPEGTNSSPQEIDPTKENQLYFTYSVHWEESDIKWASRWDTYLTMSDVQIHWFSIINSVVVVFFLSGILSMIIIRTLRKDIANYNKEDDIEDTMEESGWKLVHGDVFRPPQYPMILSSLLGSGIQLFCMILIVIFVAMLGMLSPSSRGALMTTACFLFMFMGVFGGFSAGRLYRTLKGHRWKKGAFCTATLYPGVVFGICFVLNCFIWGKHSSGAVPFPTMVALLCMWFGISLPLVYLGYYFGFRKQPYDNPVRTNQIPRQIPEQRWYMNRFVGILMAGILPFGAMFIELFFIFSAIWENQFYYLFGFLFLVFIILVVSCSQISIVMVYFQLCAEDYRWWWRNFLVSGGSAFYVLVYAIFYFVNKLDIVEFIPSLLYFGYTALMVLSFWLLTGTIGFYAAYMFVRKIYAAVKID
MAP/microtubule affinity-regulating kinase 3 (Homo sapiens), sequence (P27448 whole entry, looked up): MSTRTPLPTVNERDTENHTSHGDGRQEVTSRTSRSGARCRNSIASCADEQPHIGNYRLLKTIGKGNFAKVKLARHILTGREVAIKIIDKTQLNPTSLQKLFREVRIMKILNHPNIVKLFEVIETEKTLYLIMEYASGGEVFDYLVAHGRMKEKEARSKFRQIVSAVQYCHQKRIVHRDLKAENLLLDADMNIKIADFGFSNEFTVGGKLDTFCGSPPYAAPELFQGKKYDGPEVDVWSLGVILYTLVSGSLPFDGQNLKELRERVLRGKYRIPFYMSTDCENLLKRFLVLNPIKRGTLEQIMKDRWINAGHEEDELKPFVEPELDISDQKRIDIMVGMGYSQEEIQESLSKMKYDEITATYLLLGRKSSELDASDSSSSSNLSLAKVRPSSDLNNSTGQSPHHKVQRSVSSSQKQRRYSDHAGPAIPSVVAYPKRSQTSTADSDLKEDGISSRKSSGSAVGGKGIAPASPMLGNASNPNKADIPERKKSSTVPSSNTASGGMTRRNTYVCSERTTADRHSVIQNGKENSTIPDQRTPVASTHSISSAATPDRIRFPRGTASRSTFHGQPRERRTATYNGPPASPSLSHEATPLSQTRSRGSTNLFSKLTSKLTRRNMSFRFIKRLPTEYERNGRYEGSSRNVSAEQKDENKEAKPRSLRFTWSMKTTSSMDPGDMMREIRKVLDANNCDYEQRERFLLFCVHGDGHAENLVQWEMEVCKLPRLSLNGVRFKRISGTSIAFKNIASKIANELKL

Cc1ccc(C(=O)Nc2cccc(C(F)(F)F)c2)cc1Nc1nc(-c2cccnc2)nc2c1cnn2C
IC50 (Ephrin type-B receptor 3): 0.006 µM
ED50 [1]: 3.78 µM
ED50 [2]: 3.49 µM
ED50 (Cyclin-T1 (Homo sapiens)): 0.0168 µM
ED50 [3]: 0.00547 µM
ED50 [4]: 1.94 µM
ED50 [5]: 0.109 µM
ED50 [6]: 0.126 µM
ED50 [7]: 5.44 µM
ED50 [8]: 2.92 µM
ED50 [9]: 8.81 µM
ED50 [10]: 22 µM
ED50 (Homo sapiens [11]): 2.84 µM
ED50 [12]: 0.174 µM
ED50 [13]: 23.1 µM
ED50 [14]: 0.000337 µM
ED50 [15]: 0.00186 µM
ED50 [16]: 0.772 µM
ED50 [17]: 0.177 µM
ED50 [18]: 0.176 µM
ED50 [19]: 19.1 µM
ED50 [20]: 3.4 µM
ED50 [21]: 11.1 µM
ED50 [22]: 0.97 µM
ED50 [23]: 4.18 µM
ED50 [24]: 0.29 µM
ED50 [25]: 2.73 µM
ED50 [26]: 2570 µM
ED50 (Homo sapiens [27]): 322 µM
ED50 [28]: 6.61 µM
ED50 [29]: 0.00292 µM
ED50 [30]: 0.0531 µM
ED50 [31]: 4.06 µM
ED50 [32]: 12.2 µM
ED50 [33]: 3.83 µM
ED50 [34]: 2.39 µM
ED50 [35]: 11.4 µM
ED50 (Elongin-C (Homo sapiens)): 122 µM
ED50 [36]: 0.934 µM
ED50 [37]: 4.22 µM
ED50 [38]: 9.65 µM
ED50 [39]: 3.39 µM
ED50 [40]: 59.2 µM
ED50 [41]: 2.53 µM
ED50 [42]: 0.46 µM
ED50 [43]: 0.00899 µM

Cc1ccc(C(=O)Nc2cccc(C(F)(F)F)c2)cc1Nc1nc(-c2cccnc2)nc2nn(C)cc12
IC50 (Ephrin type-B receptor 3): 0.191 µM
ED50 [1]: 0.0933 µM
ED50 [2]: 2.93 µM
ED50 (Cyclin-T1 (Homo sapiens)): 0.0502 µM
ED50 [3]: 0.174 µM
ED50 [4]: 0.487 µM
ED50 [5]: 0.0889 µM
ED50 [6]: 16.2 µM
ED50 [7]: 0.0214 µM
ED50 [8]: 8.18 µM
ED50 [9]: 24.7 µM
ED50 [10]: 0.0555 µM
ED50 (Homo sapiens [11]): 0.0194 µM
ED50 [12]: 1.07 µM
ED50 [13]: 12.7 µM
ED50 [14]: 3.06 µM
ED50 [15]: 0.0878 µM
ED50 [16]: 1.53 µM
ED50 [17]: 1.68 µM
ED50 [18]: 5.25 µM
ED50 [19]: 0.409 µM
ED50 [20]: 0.202 µM
ED50 [21]: 0.343 µM
ED50 [22]: 1.3 µM
ED50 [23]: 10.7 µM
ED50 [24]: 0.0058 µM
ED50 [25]: 0.0305 µM
ED50 [26]: 2.59 µM
ED50 (Homo sapiens [27]): 0.0718 µM
ED50 [28]: 15.8 µM
ED50 [29]: 1.01 µM
ED50 [30]: 0.00199 µM
ED50 [31]: 1.68 µM
ED50 [32]: 16 µM
ED50 [33]: 0.0577 µM
ED50 [34]: 0.018 µM
ED50 [35]: 0.06 µM
ED50 (Elongin-C (Homo sapiens)): 0.682 µM
ED50 [36]: 0.00129 µM
ED50 [37]: 0.0218 µM
ED50 [38]: 95.3 µM
ED50 [39]: 5310 µM
ED50 [40]: 0.0787 µM
ED50 [41]: 4.67 µM
ED50 [42]: 47.8 µM
ED50 [43]: 0.0559 µM
